Reference: paper doi:10.1101/2024.12.23.630153v1 (biorxiv, 2024)
Where two headings read alike, the source gives them in different places.

Assays:
OXA-57 [1] = target: T1, OXA-57 (Burkholderia pseudomallei, UniProt Q6ZZZ2); test: biochemical
OXA-57 [2] = target: T1, OXA-57
OXA-57 [3] = target: T1, OXA-57; test: biochemical; conditions: pIC50

T1 sequence (Q6ZZZ2 24-269 limits assumed): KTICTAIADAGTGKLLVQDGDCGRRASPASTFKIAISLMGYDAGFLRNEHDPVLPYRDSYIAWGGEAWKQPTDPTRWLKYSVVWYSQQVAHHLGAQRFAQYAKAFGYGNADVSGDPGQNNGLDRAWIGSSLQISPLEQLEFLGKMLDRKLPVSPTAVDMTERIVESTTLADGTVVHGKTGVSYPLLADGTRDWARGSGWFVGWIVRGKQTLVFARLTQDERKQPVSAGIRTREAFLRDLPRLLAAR

C[C@H]1[C@H](NC(=O)/C(=N\OC(C)(C)C(=O)O)c2csc(N)n2)C(=O)N1S(=O)(=O)O [Aztreonam]
IC50 (OXA-57 [1]): > 3980 µM

CO/N=C(\C(=O)N[C@@H]1C(=O)N2C(C(=O)O)=C(COC(C)=O)CS[C@H]12)c1csc(N)n1 [Cefotaxime]
IC50 (OXA-57 [1]): > 3980 µM

CC(C)(O/N=C(\C(=O)N[C@@H]1C(=O)N2C(C(=O)[O-])=C(C[n+]3ccccc3)CS[C@H]12)c1csc(N)n1)C(=O)O [Ceftazidime]
IC50 (OXA-57 [1]): > 3980 µM

CC(=O)OCC1=C(C(=O)O)N2C(=O)[C@@H](NC(=O)Cc3cccs3)[C@H]2SC1 [Cephalothin]
Ki (OXA-57 [2]): 405 ± 97 µM

O=C(O)[C@H]1/C(=C/CO)O[C@@H]2CC(=O)N21 [Clavulanate]
IC50 (OXA-57 [1]): 9.4 µM
IC50 (OXA-57 [3]): 12.6 µM

C[C@@H](O)[C@H]1C(=O)N2C(C(=O)O)=C(SCCN=CN)C[C@H]12 [Imipenem]
Ki (OXA-57 [2]): 265 ± 79 µM

C[C@@H](O)[C@H]1C(=O)N2C(C(=O)O)=C(S[C@@H]3CN[C@H](C(=O)N(C)C)C3)[C@H](C)[C@H]12 [Meropenem]
Ki (OXA-57 [2]): 646 ± 355 µM

O=C(O)C[C@@H]1CC[C@H](NC(=O)Cc2cccs2)B(O)O1 [Vaborbactam]
IC50 (OXA-57 [1]): > 3980 µM
